Test results taken from patent US20070010402A1, “Novel herbicides, usage thereof, novel thienopyrimidine derivatives, intermediates of the same, and process for production thereof” (NIHON NOHYAKU CO., LTD.,, priority 2002, published 2007).

What was measured:
Test in all cases: Field foliar treatment test (Test Example 1)
Type in all cases: in vivo
Conditions in all cases: foliar spray at 1.0- to 2.0-leaf stage, wettable powder, active ingredient 10 g/a, 21st day from the treatment
[1] = tested on: Brassica juncea
Experimental: (§1) Alluvial soil from a field was put in a resin-made vat having an area of 200 cm^2. After fertilization, the seeds of Echinochloa crus-galli, Brassica juncea, and Ipomoea purpurea were cast on the soil and uniformly covered with the soil. Then, cultivation was continued in a greenhouse, and when the weeds to be tested reached the 1.0- to 2.0-leaf stage, the wettable powder obtained in Formulation Example 1 was diluted with water and a predetermined amount thereof was sprayed uniformly to the weeds by means of a small-sized power pressure spray to give 10 g of the active ingredient per an are. Thereafter, cultivation was further continued in the greenhouse, and the herbicidal effect was examined on the 21st day from the treatment. The results obtained are shown in Table 7 (the compound numbers in Table 7 correspond to those in Table 1 to 6). The herbicidal effect was evaluated in terms of herbicidal rate obtained from the following equation: Herbicidal rate (%)=[1−(Weight of weeds above the ground in a treated plot)/(Weight of weeds above the ground in a non-treated plot)]×100 and was expressed by herbicidal index according to the following criteria. [table]

[2] = tested on: Ipomoea purpurea
Experimental: as §1

[3] = tested on: Echinochloa crus-galli
Experimental: as §1

Structure (SMILES) | Herbicidal effect Brassica juncea (herbicidal index) [1] | Herbicidal effect Ipomoea purpurea (herbicidal index) [2] | Herbicidal effect Echinochloa crus-galli (herbicidal index) [3]
Cc1cc2c(-c3ccccc3OC(F)(F)F)nc(Cl)nc2s1 [5-31] | 5 (91 to 100) | 5 (91 to 100) | 4 (71 to 90)
CCCOc1nc(-c2cccc(C(F)(F)F)c2)c2cc(C)sc2n1 [6-25] | 5 (91 to 100) | 5 (91 to 100) | 4 (71 to 90)
CCCOc1nc(-c2cccc(OC(F)(F)F)c2)c2cc(C)sc2n1 [6-35] | 5 (91 to 100) | 5 (91 to 100) | 5 (91 to 100)
CCCOc1nc(-c2cccc(SC(F)(F)F)c2)c2cc(C)sc2n1 [6-39] | 4 (71 to 90) | 5 (91 to 100) | 5 (91 to 100)
CCCOc1nc(-c2cccc(OC(F)F)c2)c2cc(C)sc2n1 [6-40] | 5 (91 to 100) | 5 (91 to 100) | 4 (71 to 90)
Cc1cc2c(-c3cccc(Br)c3)nc(OC3CCCC3)nc2s1 [6-61] | 4 (71 to 90) | 4 (71 to 90) | 4 (71 to 90)
Cc1cc2c(-c3cccc(C(F)(F)F)c3)nc(OC3CCCC3)nc2s1 [6-80] | 5 (91 to 100) | 5 (91 to 100) | 5 (91 to 100)
Cc1cc2c(-c3ccc(F)c(C(F)(F)F)c3)nc(OC3CCCC3)nc2s1 [6-83] | 4 (71 to 90) | 5 (91 to 100) | 5 (91 to 100)
Cc1cc2c(-c3cccc(OC(F)(F)F)c3)nc(OC3CCCC3)nc2s1 [6-85] | 4 (71 to 90) | 5 (91 to 100) | 5 (91 to 100)
C#CC(C)Oc1nc(-c2cccc(C(F)(F)F)c2)c2cc(C)sc2n1 (stereo not drawn) [6-90] | 5 (91 to 100) | 5 (91 to 100) | 5 (91 to 100)
C=CCCOc1nc(-c2cccc(C(F)(F)F)c2)c2cc(C)sc2n1 [6-92] | 5 (91 to 100) | 4 (71 to 90) | 5 (91 to 100)
Cc1cc2c(-c3cccc(C(F)(F)F)c3)nc(OCCF)nc2s1 [6-96] | 5 (91 to 100) | 5 (91 to 100) | 4 (71 to 90)
Cc1cc2c(-c3cccc(C(F)(F)F)c3)nc(OCC(F)(F)F)nc2s1 [6-97] | 5 (91 to 100) | 5 (91 to 100) | 5 (91 to 100)
Cc1cc2c(-c3cccc(C(F)(F)F)c3)nc(OCC(Cl)(Cl)Cl)nc2s1 [6-98] | 4 (71 to 90) | 5 (91 to 100) | 5 (91 to 100)
Cc1cc2c(-c3cccc(OC(F)(F)F)c3)nc(OCC(F)F)nc2s1 [6-109] | 5 (91 to 100) | 4 (71 to 90) | 5 (91 to 100)
Cc1cc2c(-c3cccc(OC(F)(F)F)c3)nc(OCC(F)(F)C(F)F)nc2s1 [6-112] | 5 (91 to 100) | 5 (91 to 100) | 5 (91 to 100)
Cc1cc2c(-c3cccc(SC(F)(F)F)c3)nc(OCC(F)(F)F)nc2s1 [6-115] | 5 (91 to 100) | 5 (91 to 100) | 5 (91 to 100)
Cc1cc2c(-c3cccc(OC(F)F)c3)nc(OCC(F)(F)C(F)F)nc2s1 [6-125] | 5 (91 to 100) | 5 (91 to 100) | 5 (91 to 100)
COCC(C)Oc1nc(-c2cccc(C(F)(F)F)c2)c2cc(C)sc2n1 (stereo not drawn) [6-142] | 4 (71 to 90) | 5 (91 to 100) | 5 (91 to 100)
Cc1cc2c(-c3cccc(C(F)(F)F)c3)nc(OC3CCOC3)nc2s1 (stereo not drawn) [6-184] | 4 (71 to 90) | 5 (91 to 100) | 5 (91 to 100)
Cc1cc2c(-c3cccc(C(F)(F)F)c3)nc(OCc3ccco3)nc2s1 [6-187] | 5 (91 to 100) | 5 (91 to 100) | 4 (71 to 90)
Cc1cc2c(-c3cccc(C(F)(F)F)c3)nc(-n3cccn3)nc2s1 [6-192] | 4 (71 to 90) | 5 (91 to 100) | 4 (71 to 90)
Cc1cc2c(-c3cccc(C(F)(F)F)c3)nc(-n3cncn3)nc2s1 [6-193] | 4 (71 to 90) | 5 (91 to 100) | 4 (71 to 90)
Cc1cc2c(-c3cccc(C(F)(F)F)c3)nc(-n3ccnc3C)nc2s1 [6-194] | 5 (91 to 100) | 5 (91 to 100) | 4 (71 to 90)
Cc1cc2c(Oc3cccc(OC(F)(F)F)c3)nc(-n3ccc(C(F)(F)F)n3)nc2s1 [6-202] | 4 (71 to 90) | 5 (91 to 100) | 4 (71 to 90)
Cc1cc2c(-c3ccc(F)c(C(F)(F)F)c3)nc(OCC(F)(F)F)nc2s1 [6-207] | 5 (91 to 100) | 5 (91 to 100) | 5 (91 to 100)
Cc1cccc(-c2nc(OC(C)C)nc3sc(C)cc23)c1 [6-215] | 5 (91 to 100) | 5 (91 to 100) | 5 (91 to 100)
Cc1cc2c(-c3ccccc3C)nc(OCC(F)(F)F)nc2s1 [6-217] | 5 (91 to 100) | 5 (91 to 100) | 4 (71 to 90)
Cc1cc2nc(OCC(F)(F)F)nc(-c3cccc(OC(F)(F)F)c3)c2s1 [6-235] | 5 (91 to 100) | 5 (91 to 100) | 5 (91 to 100)
C#CC(C)Oc1nc(-c2cccc(OC(F)(F)F)c2)c2sc(C)cc2n1 (stereo not drawn) [6-236] | 5 (91 to 100) | 5 (91 to 100) | 5 (91 to 100)
